Laboratory results: patent US12180204B1, “2-(benzo[d]thiazol-2-yl)-N′-(2-(5-phenyl-1,3,4-oxadiazol-2-ylthio)acetoxy)acetimidamide as an antimicrobial compound” (priority 2023, dated 2024)

Tested on: Bacillus cereus, Staphylococcus aureus, Pseudomonas aeruginosa, Escherichia coli, Aspergillus flavus, Chrysosporium keratinophilum
Test: Agar plate disc-diffusion antimicrobial test
Format: cell-based
Settings: disc wetted with 10 μL of 10 mg/mL in DMSO; 37° C., 48 h, 72 h for fungi; DMSO control zone subtracted
Protocol: The agar plate disc-diffusion method was applied. Sterilized filter papers (6 mm in diameter) were wetted with 10 μL of a solution of 2-(benzo[d]thiazol-2-yl)-N′-(2-(5-phenyl-1,3,4-oxadiazol-2-ylthio)acetoxy)acetimidamide (3) to be tested, containing 10 mg/mL in DMSO, and the discs were allowed to air dry. The discs were then placed onto the surface of agar plates (nutrient agar for bacteria and Sabouraud's dextrose agar for fungi) seeded with the test organism. Each plate contained 15 mL of the agar medium, previously seeded with 0.2 mL of the broth culture of each organism pregrown for 18 hours. The plates were incubated at 37° C. for 48 h, and 72 h for fungi. The inhibition zones were measured in mm. Discs impregnated with DMSO were used as a control, and its inhibition zone was subtracted from the tested compound actual inhibition zone. […] The antibacterial activity was screened against gram positive bacteria namely Bacillus cereus and Staphylococcus aureus and gram-negative bacterial strains namely Pseudomonas aeruginosa and Escherichia coli, while the antifungal activity was screened against Aspergillus flavus and Chrysosporium keratinophilum.

Structure (SMILES): N/C(Cc1nc2ccccc2s1)=N\OC(=O)CSc1nnc(-c2ccccc2)o1 [compound 3, 2-(benzo[d]thiazol-2-yl)-N′-(2-(5-phenyl-1,3,4-oxadiazol-2-ylthio)acetoxy)acetimidamide]
- antimicrobial activities (inhibition zones): high antimicrobial activities
